target: MHC-II allele DRB1*01:01 (Homo sapiens, UniProt P01903+P01911, A100R/D57E/F55L/F60I/F76Y/I96L/L162R/M171V/P40L/Q125E/R42F/V115G/Y59C); format: binding; conditions: not given

Sequence	Affinity for MHC-II (subfamily by experimental affinity scores)
QTLIAIHTLAIRYAN [Peptide P10]	high affinity

same assay, conditions: DRB1*01:01; SF-high / SF-low assigned from REVEAL scores

Sequence	Affinity for MHC-II (subfamily by experimental affinity scores)
QGLKAIHTLAIRYAN [Peptide V10]	high affinity
QGLPAIHTLAIRYAN [Peptide V7]	low affinity
QMLHAIHTLAIRYAN [Peptide V16]	high affinity
QNHHAIHTLAIRYAN [Peptide V15]	low affinity
QPFPDIHTLAIRYAN [Peptide V3]	low affinity
QPFQDIHTLAIRYAN [Peptide V5]	low affinity
QTLLDIHTLAIRYAN [Peptide V1]	low affinity
QTLQAIHTLAIRLAN [Peptide V11]	high affinity
QTLTAIHTLAIRYAN [Peptide V6]	high affinity
QTYHAIHTLAIRYAN [Peptide V14]	high affinity

From paper PMC9986244, “Connection between MHC class II binding and aggregation propensity: The antigenic peptide 10 of Paracoccidioides brasiliensis as a benchmark study” (Computational and Structural Biotechnology Journal, 2023)
